The target in assay [1] is T1, connexin43 (mCx43) hemichannel (Mus musculus, UniProt P23242).
T1 construct: gene Gja1; mouse Cx43 (NM_010288.3) stably expressed in HeLa cells
The experiment in a line: ethidium uptake in HeLa-mCx43 cells, […] streptomycin. In kind it is cell-based.

Assay [2] addresses T2, connexin45 (mCx45) hemichannel (Mus musculus, UniProt P28229).
T2 construct: gene Gjc1; mouse Cx45 (NM_001159383.1) stably expressed in HeLa cells
The experiment in a line: ethidium uptake in HeLa-mCx45 cells, […] streptomycin. The assay is classed as cell-based.

T1 sequence (P23242 2-382): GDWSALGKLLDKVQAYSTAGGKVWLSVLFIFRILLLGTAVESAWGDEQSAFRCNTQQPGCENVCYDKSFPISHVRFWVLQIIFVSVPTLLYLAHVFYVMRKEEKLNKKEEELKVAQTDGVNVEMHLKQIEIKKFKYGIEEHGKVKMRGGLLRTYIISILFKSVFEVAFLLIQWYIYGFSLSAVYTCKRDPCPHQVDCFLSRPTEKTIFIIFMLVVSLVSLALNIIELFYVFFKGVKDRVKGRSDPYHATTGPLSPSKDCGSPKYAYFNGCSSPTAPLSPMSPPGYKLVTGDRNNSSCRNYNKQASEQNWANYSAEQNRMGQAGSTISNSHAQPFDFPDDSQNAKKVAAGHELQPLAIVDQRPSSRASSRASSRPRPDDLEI
T2 sequence (P28229 whole entry): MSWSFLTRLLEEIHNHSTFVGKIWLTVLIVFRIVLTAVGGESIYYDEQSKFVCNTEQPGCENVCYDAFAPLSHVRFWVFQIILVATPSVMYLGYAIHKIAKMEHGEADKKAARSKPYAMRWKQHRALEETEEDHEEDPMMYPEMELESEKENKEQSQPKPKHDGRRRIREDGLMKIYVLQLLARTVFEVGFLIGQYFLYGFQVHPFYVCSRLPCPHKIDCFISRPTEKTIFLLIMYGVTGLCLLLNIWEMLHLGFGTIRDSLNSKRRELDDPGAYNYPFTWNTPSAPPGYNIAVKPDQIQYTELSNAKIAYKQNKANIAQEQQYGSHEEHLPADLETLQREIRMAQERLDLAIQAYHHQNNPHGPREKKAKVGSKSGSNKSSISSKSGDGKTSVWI

As for `[H]/N=C(/N)N[C@H]1[C@H](O)[C@@H](O)[C@H](O[C@@H]2O[C@@H](C)[C@](O)(C=O)[C@H]2O[C@@H]2O[C@@H](CO)[C@H](O)[C@@H](O)[C@@H]2NC)[C@@H](N/C(N)=N\[H])[C@@H]1O` [streptomycin], the “ethidium uptake in HeLa-mCx43 cells, 200 μM streptomycin” value in assay [1] is “also inhibited the Etd uptake of HeLa-rCx26 (Figures 2E,F), -mCx43 and -mCx45 cells in DCFS”. Further, the “ethidium uptake in HeLa-mCx45 cells, 200 μM streptomycin” value in assay [2] is given as “In HeLa-mCx45 cells, Etd uptake was reduced to values below the ones recorded under control condition”.

These data come from PMC4154469, “Extracellular gentamicin reduces the activity of connexin hemichannels and interferes with purinergic Ca^2+ signaling in HeLa cells” (Frontiers in Cellular Neuroscience, 2014).
